These results are taken from paper PMC8662641, “Site-Specific Labeling of Endogenous Proteins Using CoLDR Chemistry” (Journal of the American Chemical Society, 2021).

The subject of assay [1] is primary mouse B cells. Briefly: B-cell response experiment (CD86 after anti-IgM). It is filed as cell-based. The conditions noted are these: 24 h treatment, 1–1000 nM. Here is the method: Splenic cells from C57BL/6 mice were isolated by forcing spleen tissue through the mesh into PBS containing 2% fetal calf serum and 1 mM EDTA, and red blood cells were depleted by lysis buffer. […] Following a 24 h incubation, cells were stimulated with anti-IgM overnight (5 μg/mL, Sigma-Aldrich). […] Single-cell suspensions were analyzed by a flow cytometer (CytoFlex, Beckman Coulter).

The target in assay [2] is BTK kinase domain (Homo sapiens, UniProt Q06187). Briefly: Time-dependent labeling of BTK, kinact and Ki of 1b. Also on record: BTK kinase domain was expressed and purified as previously reported; made in house. It is filed as binding. Here is the method: To assess the kinetic parameters of labeling, we performed a time-dependent incubation experiment of BTK (200 nM) with various concentrations of 1b (300–2000 nM, 20 mM Tris, pH 8, 14 °C; […]. page 9:
Figure S5. Determination of kinact and Ki parameters of CoLDR probe 1b. A. Depletion of unlabelled BTK (200 nM) […]
reaction was monitored by LC-MS. B. The rate constants as extrapolated from A. as a function of the concentration […]
(1 picture or pasted object on this page, not shown here)
Analysis was done using MaxQuant 1.6.3.4. The sequence of BTK was used for the analysis. The digestion enzyme was set to Trypsin with a maximum number of missed cleavages of 0.
Carbamidomethyl and the modification by the molecule were included as variable modifications on cysteine. The “Re-quantify” option was enabled. Contaminants were included. […] The triplicate measured for each compound (or for DMSO-treated protein) was analyzed separately.
Following MaxQuant analysis, only fully cleaved peptides were quantified and cysteine-containing peptides that were not modified by either iodoacetamide or compound were ignored.
The intensity for each peptide was calculated as the average of the three triplicates. […]
from the stock solution. […] The labeling percentage for a compound was determined as the labeling of a specific compound (alone or together with other compounds) divided by the overall detected protein species. […]

Sequence of BTK kinase domain (Q06187 402-655 limits assumed): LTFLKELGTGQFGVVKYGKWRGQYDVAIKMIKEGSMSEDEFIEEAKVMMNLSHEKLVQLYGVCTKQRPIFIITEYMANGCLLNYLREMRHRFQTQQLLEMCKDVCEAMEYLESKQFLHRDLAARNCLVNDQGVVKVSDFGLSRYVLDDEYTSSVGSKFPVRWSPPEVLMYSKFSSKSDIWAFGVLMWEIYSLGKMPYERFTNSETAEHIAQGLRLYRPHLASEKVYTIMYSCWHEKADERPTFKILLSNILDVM

By kinact is commonly meant the maximal first-order rate at which the target is inactivated. Consider `C#CCCNC(=O)C(=C)CN1CCC[C@@H](n2nc(-c3ccc(Oc4ccccc4)cc3)c3c(N)ncnc32)C1` [1b], for which the “B cell activation (CD86 expression) after anti-IgM” value in assay [1] is “did not inhibit the activation of B cells”. In addition, the “reversible binding component weaker than ibrutinib” value in assay [2] (1b Ki compared with reported ibrutinib Ki) was “about 5 fold”. Also, the inactivation rate constant (kinact) in assay [2] (BTK 200 nM, 1b 300–2000 nM, 20 mM Tris, pH 8, 14 °C) was 0.0278 s⁻¹.
